Experimental data reported in US6407288B1, “Naphthylsalicylanilides as antimicrobial and antiinflammatory agents” (The Research Foundation of State University of New York, priority 2000, dated 2002).
One block for each compound: values may come before it.

Key:
[1] = test system: staphylococcus species R (strain 00-045-1209); test: Sensitivity of strain to known antibiotics; type: cell-based; conditions: sensitive / resistant
Description: (§1) This embodiment describes the sensitivity of various staphylococcus strains to the compounds of the present invention. The staphylococcus species R is a strain 00-045-1209 from the Children's Hospital in Buffalo. It was isolated from the peritoneal cavity (fluid culture) of an individual. It was coagulase negative. The sensitivity of this strain was tested agaisnt several known antibiotics.

[2] = test system: Str.pn.R (strain 00-041-0614); test: Sensitivity of strain to known antibiotics; type: cell-based, Streptococcus; conditions: sensitive / resistant
Description: (§2) This embodiment illustrates the efficacy of the compounds of the present invention against Streptococcus strains. One of the strains, Str.pn.R was obtained from the Children's Hospital in Buffalo (strain 00-041-0614). […] The sensitivity of this strain was tested against several known antibiotics.

Str. pn = test: Mean Streptococcus MIC; type: cell-based; conditions: Table 5, mean
Description: (§3) The MIC's for the compounds were determined by a modified microdilution tube dilution method described in “Methods for Dilution Antimicrobial Susceptibility Tests for Bacteria that Grow Aerobically” (National Committee for Clinical Laboratory Standards Approved Standards, 1997, NCCLS document M7-A4). In general the modifications were made because of the unique growth requirements for the fastidious oral organisms and for those bacteria that require anaerobic conditions. Reference is also made to “Methods for Antimicrobial Susceptibility of Anaerobic Bacteria” (National Committee for Clinical Laboratory Standards Approved Standards, 1997, NCCLS document M11-A4).
(§4) Briefly, the methods were as follows. Cultures were grown for 18-24hrs (aerobic bacteria) or 48-72 hrs (anaerobic bacteria) in the appropriate medium. For aerobic bacteria full strength brain heart infusion medium (BHI, Difco) was used. For anaerobic bacteria, half strength BHI (18.5 g/L) was supplemented by adding yeast extract (10 g/L), hemin (0.29 mL of a stock solution containing 0.1 g/200 mL dH2O) and menadione (15 mL of a stock solution containing 0.15 mL in 30 mL 95% EtOH) was used. Initial cultures were diluted to approximately 1×10^8 CFU/mL for use as an inoculum. Each assay received 10 μL of the inoculum. The drugs were prepared from a stock solution contained in dimethyl sulfoxide (DMSO) and diluted into the culture medium. Final concentrations of the drugs ranged from 50 to 0.05 μg/assay. The tests were run in duplicate and were incubated appropriately with regard to oxygen requirements for 24 to 48 hrs as required. Anaerobic incubation was an atmosphere of 5% CO2, 10% H2, with the balance N2. The lowest concentration of an antimicrobial agent at which no visible growth is noted was referred to as the MIC.
as §2

Str. pn. R = test: Mean Streptococcus MIC; type: cell-based; conditions: Table 5, mean; strain resistant to penicillin and erythromycin
Description: as §3, §4, §2

Aa Y4 = test: MIC microdilution, gram negative; type: cell-based, Actinobacillus actinomycetemcomitans
Description: (§5) The MIC's for the compounds were determined by a modified microdilution tube dilution method described in “Methods for Dilution Antimicrobial Susceptibility Tests for Bacteria that Grow Aerobically” (National Committee for Clinical Laboratory Standards Approved Standards, 1997, NCCLS document M7-A4). In general the modifications were made because of the unique growth requirements for the fastidious oral organisms and for those bacteria that require anaerobic conditions. Reference is also made to “Methods for Antimicrobial Susceptibility of Anaerobic Bacteria” (National Committee for Clinical Laboratory Standards Approved Standards, 1997, NCCLS document M11-A4). Briefly, the methods were as follows. Cultures were grown for 18-24hrs (aerobic bacteria) or 48-72 hrs (anaerobic bacteria) in the appropriate medium. For aerobic bacteria full strength brain heart infusion medium (BHI, Difco) was used. For anaerobic bacteria, half strength BHI (18.5 g/L) was supplemented by adding yeast extract (10 g/L), hemin (0.29 mL of a stock solution containing 0.1 g/200 mL dH2O) and menadione (15 mL of a stock solution containing 0.15 mL in 30 mL 95% EtOH) was used. Initial cultures were diluted to approximately 1×10^8 CFU/mL for use as an inoculum. Each assay received 10 μL of the inoculum. The drugs were prepared from a stock solution contained in dimethyl sulfoxide (DMSO) and diluted into the culture medium. Final concentrations of the drugs ranged from 50 to 0.05 μg/assay. The tests were run in duplicate and were incubated appropriately with regard to oxygen requirements for 24 to 48 hrs as required. Anaerobic incubation was an atmosphere of 5% CO2, 10% H2, with the balance N2. The lowest concentration of an antimicrobial agent at which no visible growth is noted was referred to as the MIC. […] The method used was the same as described in Example 1.

Fuso. 25586 = test: MIC microdilution, gram negative; type: cell-based, Fusobacterium nucleatum
Description: as §5

S. mutans = test: MIC microdilution, gram positive; type: cell-based, Streptococcus mutans; conditions: Table 1, Gram Positive
Description: (§6) The MIC's for the compounds were determined by a modified microdilution tube dilution method described in “Methods for Dilution Antimicrobial Susceptibility Tests for Bacteria that Grow Aerobically” (National Committee for Clinical Laboratory Standards Approved Standards, 1997, NCCLS document M7-A4). In general the modifications were made because of the unique growth requirements for the fastidious oral organisms and for those bacteria that require anaerobic conditions. Reference is also made to “Methods for Antimicrobial Susceptibility of Anaerobic Bacteria” (National Committee for Clinical Laboratory Standards Approved Standards, 1997, NCCLS document M11-A4). Briefly, the methods were as follows. Cultures were grown for 18-24hrs (aerobic bacteria) or 48-72 hrs (anaerobic bacteria) in the appropriate medium. For aerobic bacteria full strength brain heart infusion medium (BHI, Difco) was used. For anaerobic bacteria, half strength BHI (18.5 g/L) was supplemented by adding yeast extract (10 g/L), hemin (0.29 mL of a stock solution containing 0.1 g/200 mL dH2O) and menadione (15 mL of a stock solution containing 0.15 mL in 30 mL 95% EtOH) was used. Initial cultures were diluted to approximately 1×10^8 CFU/mL for use as an inoculum. Each assay received 10 μL of the inoculum. The drugs were prepared from a stock solution contained in dimethyl sulfoxide (DMSO) and diluted into the culture medium. Final concentrations of the drugs ranged from 50 to 0.05 μg/assay. The tests were run in duplicate and were incubated appropriately with regard to oxygen requirements for 24 to 48 hrs as required. Anaerobic incubation was an atmosphere of 5% CO2, 10% H2, with the balance N2. The lowest concentration of an antimicrobial agent at which no visible growth is noted was referred to as the MIC.

P. acnes 11828 = test: MIC microdilution, gram positive; type: cell-based, Propionibacterium acnes; conditions: Table 1, Gram Positive
Description: as §6

P. acnes 6922 = test: MIC microdilution, gram positive; type: cell-based, Propionibacterium acnes; conditions: Table 1, Gram Positive
Description: as §6

P. ging 381 = test: MIC microdilution, gram negative; type: cell-based, Porphyromonas gingivalis
Description: as §5

Pg 53977 = test: MIC microdilution, gram negative; type: cell-based, Porphyromonas gingivalis
Description: as §5

A. viscosus = test: MIC microdilution, gram positive; type: cell-based, Actinomyces viscosus; conditions: Table 2, Gram Positive
Description: as §6

B. fragilis = test: MIC microdilution, gram negative; type: cell-based, Bacteroides fraglis
Description: as §5

S. aureus = test: MIC microdilution, gram positive; type: cell-based, Staphlococcus aureus
Description: as §3, §4, §1

Lact 7496 = test: MIC microdilution, gram positive; type: cell-based, Lactobacillus rhamnosus (casei); conditions: Table 2, Gram Positive
Description: as §6

S.salivarius = test: MIC microdilution, gram positive; type: cell-based, Streptococcus salivarius; conditions: Table 1, Gram Positive
Description: as §6

S. sanguis = test: MIC microdilution, gram positive; type: cell-based, Streptococcus sanguis; conditions: Table 1, Gram Positive
Description: as §6

S. species R = test: Staphylococcus MIC; type: cell-based, staphylococcus species R; conditions: second Table 5 (Example 5); strain 00-045-1209
Description: as §3, §4, §1

M. luteus = test: MIC microdilution, gram positive; type: cell-based, Micrococcus luteus; conditions: Table 2, Gram Positive
Description: as §6

[3] = Table 3 printed a second time, Gram Negative

Compound: CC[C@H]1OC(=O)[C@H](C)[C@@H](O[C@H]2C[C@@](C)(OC)[C@@H](O)[C@H](C)O2)[C@H](C)[C@@H](O[C@@H]2O[C@H](C)C[C@H](N(C)C)[C@H]2O)[C@](C)(O)C[C@@H](C)C(=O)[C@H](C)[C@@H](O)[C@]1(C)O [erythromycin]
sensitivity of staphylococcus species R to known antibiotics [1]: resistant
sensitivity of strain Str.pn.R to known antibiotics [2]: resistant

Compound: N[C@@H]1[C@H]2CN(c3nc4c(cc3F)c(=O)c(C(=O)O)cn4-c3ccc(F)cc3F)C[C@@H]12 [Trovoflox]
sensitivity of strain Str.pn.R to known antibiotics [2]: sensitive

Compound: penicillin
sensitivity of strain Str.pn.R to known antibiotics [2]: resistant

Compound: CC1(C)S[C@@H]2[C@H](NC(=O)[C@H](N)c3ccc(O)cc3)C(=O)N2[C@H]1C(=O)O [amoxicillin]
sensitivity of staphylococcus species R to known antibiotics [1]: resistant

Compound: CN[C@H](CC(C)C)C(=O)N[C@H]1C(=O)N[C@@H](CC(N)=O)C(=O)N[C@H]2C(=O)N[C@H]3C(=O)N[C@H](C(=O)N[C@H](C(=O)O)c4cc(O)cc(O)c4-c4cc3ccc4O)[C@H](O)c3ccc(c(Cl)c3)Oc3cc2cc(c3O[C@@H]2O[C@H](CO)[C@@H](O)[C@H](O)[C@H]2O[C@H]2C[C@](C)(N)[C@H](O)[C@H](C)O2)Oc2ccc(cc2Cl)[C@H]1O [Vancomycin]
sensitivity of staphylococcus species R to known antibiotics [1]: sensitive
sensitivity of strain Str.pn.R to known antibiotics [2]: sensitive

Compound: CO[C@H]1/C=C/O[C@@]2(C)Oc3c(C)c(O)c4c(O)c(c(/C=N/N5CCN(C)CC5)c(O)c4c3C2=O)NC(=O)/C(C)=C\C=C\[C@H](C)[C@H](O)[C@@H](C)[C@@H](O)[C@@H](C)[C@H](OC(C)=O)[C@@H]1C [Rifampin]
sensitivity of strain Str.pn.R to known antibiotics [2]: sensitive

Compound: CC[C@H]1OC(=O)[C@H](C)[C@@H](O[C@H]2C[C@@](C)(OC)[C@@H](O)[C@H](C)O2)[C@H](C)[C@@H](O[C@@H]2O[C@H](C)C[C@H](N(C)C)[C@H]2O)[C@](C)(O)C[C@@H](C)CN(C)[C@H](C)[C@@H](O)[C@]1(C)O [azithromycin]
sensitivity of staphylococcus species R to known antibiotics [1]: resistant

Compound: Cc1onc(-c2ccccc2)c1C(=O)N[C@@H]1C(=O)N2[C@@H]1SC(C)(C)[C@@H]2C(=O)O [oxacillin]
sensitivity of staphylococcus species R to known antibiotics [1]: resistant

Compound: CO/N=C(\C(=O)N[C@@H]1C(=O)N2C(C(=O)O)=C(COC(C)=O)CS[C@H]12)c1csc(N)n1 [cefotaxime]
sensitivity of staphylococcus species R to known antibiotics [1]: resistant

Mean Streptococcus MIC values Str. pn (Str. pn): 0.84 micrograms/ml
Mean Streptococcus MIC values Str. pn. R (Str. pn. R): 0.78 micrograms/ml
MIC P. acnes 11828 (P. acnes 11828): 0.4 micrograms/ml
MIC P. acnes 6922 (P. acnes 6922): 0.4 micrograms/ml
MIC P. ging 381 (P. ging 381; Table 3, Gram Negative): <0.4 micrograms/ml
MIC P. ging 381 (P. ging 381; [3]): <0.4 micrograms/ml
MIC Pg 53977 (Pg 53977; Table 3, Gram Negative): <0.4 micrograms/ml
MIC Pg 53977 (Pg 53977; [3]): <0.4 micrograms/ml
MIC Lact 7496 (Lact 7496): 1.6 micrograms/ml
MIC S.salivarius (S.salivarius): 50 micrograms/ml
MIC S. sanguis (S. sanguis): 0.8 micrograms/ml
MIC S. species R (S. species R): 25.0 micrograms/ml
MIC M. luteus (M. luteus): 0.8 micrograms/ml
Compound: O=C(c1ccc(O)c(C(=O)Nc2cccc(C(F)(F)F)c2)c1)c1ccc2ccccc2c1 [NA2mF]
MIC Aa Y4 (Aa Y4; Table 3, Gram Negative): NE (NE indicates that the drug was not effective at a concentration >50 micrograms/ml)
MIC Aa Y4 (Aa Y4; [3]): NE (NE indicates that the drug was not effective at a concentration >50 micrograms/ml)
MIC Fuso. 25586 (Fuso. 25586; Table 3, Gram Negative): NE (NE indicates that the drug was not effective at a concentration >50 micrograms/ml)
MIC Fuso. 25586 (Fuso. 25586; [3]): NE (NE indicates that the drug was not effective at a concentration >50 micrograms/ml)
MIC S. mutans (S. mutans): NE (NE indicates that the drug was not effective at a concentration >50 micrograms/ml)
MIC A. viscosus (A. viscosus): NE (NE indicates that the drug was not effective at a concentration >50 micrograms/ml)
MIC B. fragilis (B. fragilis; Table 3, Gram Negative): NE (NE indicates that the drug was not effective at a concentration >50 micrograms/ml)
MIC B. fragilis (B. fragilis; [3]): NE (NE indicates that the drug was not effective at a concentration >50 micrograms/ml)
MIC S. aureus (S. aureus; Table 2, Gram Positive): NE (NE indicates that the drug was not effective at a concentration >50 micrograms/ml)
MIC S. aureus (S. aureus; second Table 5 (Example 5)): NE (NE indicates that the drug was not effective at a concentration >50 micrograms/ml)
